From the kinase profiling compilation of Christmann-Franck et al. (2016)

How the values were obtained:
Assay in all cases: radiometric filter-binding kinase assay
STK16 (human) = STK16 (human) (UniProt O75716)
PLK1 (human) = PLK1 (human) (UniProt P53350)
CSNK2A1 (human) = CSNK2A1 (human) (UniProt P68400)
ABL1 (human) = ABL1 (human) (UniProt P00519)
[1] = tested on: OXSR1 (human), O95747 [T185E]
MAPK8 (human) = MAPK8 (human) (UniProt P45983)
AURKB (human) = AURKB (human) (UniProt Q96GD4)
YES1 (human) = YES1 (human) (UniProt P07947)
TTK (human) = TTK (human) (UniProt P33981)
Chain of TTK (human) (P33981 whole entry, looked up): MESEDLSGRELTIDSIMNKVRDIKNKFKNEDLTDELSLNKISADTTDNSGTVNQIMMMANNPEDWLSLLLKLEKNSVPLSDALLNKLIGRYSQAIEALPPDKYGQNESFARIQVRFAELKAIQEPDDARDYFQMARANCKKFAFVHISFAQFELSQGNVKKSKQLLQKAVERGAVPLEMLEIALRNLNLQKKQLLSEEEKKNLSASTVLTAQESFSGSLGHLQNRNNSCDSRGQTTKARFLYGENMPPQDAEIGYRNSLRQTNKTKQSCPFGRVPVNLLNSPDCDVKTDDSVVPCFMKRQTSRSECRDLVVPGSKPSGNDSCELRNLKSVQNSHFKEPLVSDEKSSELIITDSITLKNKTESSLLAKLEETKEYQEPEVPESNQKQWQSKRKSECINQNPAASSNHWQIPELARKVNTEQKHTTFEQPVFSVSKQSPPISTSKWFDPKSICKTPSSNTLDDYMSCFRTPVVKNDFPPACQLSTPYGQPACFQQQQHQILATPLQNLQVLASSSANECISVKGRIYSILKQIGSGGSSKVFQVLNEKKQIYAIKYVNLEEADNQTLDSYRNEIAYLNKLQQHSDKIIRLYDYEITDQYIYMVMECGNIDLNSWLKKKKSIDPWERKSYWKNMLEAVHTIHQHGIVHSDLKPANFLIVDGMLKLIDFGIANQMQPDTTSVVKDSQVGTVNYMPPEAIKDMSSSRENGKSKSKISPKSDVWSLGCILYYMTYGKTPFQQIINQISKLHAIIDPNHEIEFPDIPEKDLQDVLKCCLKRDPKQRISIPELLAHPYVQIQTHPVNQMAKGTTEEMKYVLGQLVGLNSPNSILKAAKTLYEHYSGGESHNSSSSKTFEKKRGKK

EPHB1 (human) = EPHB1 (human) (UniProt P54762)
BRSK2 (human) = BRSK2 (human) (UniProt Q8IWQ3)
Chain of BRSK2 (human) (Q8IWQ3 whole entry, looked up): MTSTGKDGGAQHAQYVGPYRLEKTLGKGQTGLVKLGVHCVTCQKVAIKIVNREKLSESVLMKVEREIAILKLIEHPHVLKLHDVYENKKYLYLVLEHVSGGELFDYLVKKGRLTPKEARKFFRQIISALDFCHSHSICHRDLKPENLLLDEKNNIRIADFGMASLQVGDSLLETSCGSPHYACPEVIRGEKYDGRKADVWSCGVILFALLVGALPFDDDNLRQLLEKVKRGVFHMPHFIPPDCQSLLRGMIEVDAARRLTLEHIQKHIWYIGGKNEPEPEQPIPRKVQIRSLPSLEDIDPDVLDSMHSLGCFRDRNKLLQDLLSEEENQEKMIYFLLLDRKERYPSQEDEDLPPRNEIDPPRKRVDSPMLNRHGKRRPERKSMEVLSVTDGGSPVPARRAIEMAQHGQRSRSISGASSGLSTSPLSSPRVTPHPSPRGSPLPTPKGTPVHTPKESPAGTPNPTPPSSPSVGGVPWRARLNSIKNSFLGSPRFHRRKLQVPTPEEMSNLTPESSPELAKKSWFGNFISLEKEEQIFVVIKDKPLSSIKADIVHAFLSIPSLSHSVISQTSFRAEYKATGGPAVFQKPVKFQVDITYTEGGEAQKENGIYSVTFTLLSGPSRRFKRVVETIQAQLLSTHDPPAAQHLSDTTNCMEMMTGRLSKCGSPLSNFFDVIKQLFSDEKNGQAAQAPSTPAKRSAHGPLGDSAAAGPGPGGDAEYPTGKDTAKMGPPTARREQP

MAP3K1 (human) = MAP3K1 (human) (UniProt Q13233)
MAPK12 (human) = MAPK12 (human) (UniProt P53778)
PAK4 (human) = PAK4 (human) (UniProt O96013)
AURKA (human) = AURKA (human) (UniProt O14965)
Chain of AURKA (human) (O14965 whole entry, looked up): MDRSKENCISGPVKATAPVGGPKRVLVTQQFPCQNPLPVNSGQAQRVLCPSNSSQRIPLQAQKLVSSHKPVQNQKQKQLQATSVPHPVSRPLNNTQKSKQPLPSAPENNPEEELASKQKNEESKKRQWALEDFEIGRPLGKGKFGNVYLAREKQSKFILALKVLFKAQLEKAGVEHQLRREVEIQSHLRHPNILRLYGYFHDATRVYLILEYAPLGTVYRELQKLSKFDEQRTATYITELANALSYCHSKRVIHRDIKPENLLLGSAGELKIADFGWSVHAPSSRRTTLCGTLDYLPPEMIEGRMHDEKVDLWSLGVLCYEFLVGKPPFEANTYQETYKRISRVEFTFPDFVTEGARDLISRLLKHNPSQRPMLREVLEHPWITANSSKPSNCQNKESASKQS

BRSK1 (human) = BRSK1 (human) (UniProt Q8TDC3)
EIF2AK3 (human) = EIF2AK3 (human) (UniProt Q9NZJ5)
IGF1R (human) = IGF1R (human) (UniProt P08069)
Chain of IGF1R (human) (P08069 whole entry, looked up): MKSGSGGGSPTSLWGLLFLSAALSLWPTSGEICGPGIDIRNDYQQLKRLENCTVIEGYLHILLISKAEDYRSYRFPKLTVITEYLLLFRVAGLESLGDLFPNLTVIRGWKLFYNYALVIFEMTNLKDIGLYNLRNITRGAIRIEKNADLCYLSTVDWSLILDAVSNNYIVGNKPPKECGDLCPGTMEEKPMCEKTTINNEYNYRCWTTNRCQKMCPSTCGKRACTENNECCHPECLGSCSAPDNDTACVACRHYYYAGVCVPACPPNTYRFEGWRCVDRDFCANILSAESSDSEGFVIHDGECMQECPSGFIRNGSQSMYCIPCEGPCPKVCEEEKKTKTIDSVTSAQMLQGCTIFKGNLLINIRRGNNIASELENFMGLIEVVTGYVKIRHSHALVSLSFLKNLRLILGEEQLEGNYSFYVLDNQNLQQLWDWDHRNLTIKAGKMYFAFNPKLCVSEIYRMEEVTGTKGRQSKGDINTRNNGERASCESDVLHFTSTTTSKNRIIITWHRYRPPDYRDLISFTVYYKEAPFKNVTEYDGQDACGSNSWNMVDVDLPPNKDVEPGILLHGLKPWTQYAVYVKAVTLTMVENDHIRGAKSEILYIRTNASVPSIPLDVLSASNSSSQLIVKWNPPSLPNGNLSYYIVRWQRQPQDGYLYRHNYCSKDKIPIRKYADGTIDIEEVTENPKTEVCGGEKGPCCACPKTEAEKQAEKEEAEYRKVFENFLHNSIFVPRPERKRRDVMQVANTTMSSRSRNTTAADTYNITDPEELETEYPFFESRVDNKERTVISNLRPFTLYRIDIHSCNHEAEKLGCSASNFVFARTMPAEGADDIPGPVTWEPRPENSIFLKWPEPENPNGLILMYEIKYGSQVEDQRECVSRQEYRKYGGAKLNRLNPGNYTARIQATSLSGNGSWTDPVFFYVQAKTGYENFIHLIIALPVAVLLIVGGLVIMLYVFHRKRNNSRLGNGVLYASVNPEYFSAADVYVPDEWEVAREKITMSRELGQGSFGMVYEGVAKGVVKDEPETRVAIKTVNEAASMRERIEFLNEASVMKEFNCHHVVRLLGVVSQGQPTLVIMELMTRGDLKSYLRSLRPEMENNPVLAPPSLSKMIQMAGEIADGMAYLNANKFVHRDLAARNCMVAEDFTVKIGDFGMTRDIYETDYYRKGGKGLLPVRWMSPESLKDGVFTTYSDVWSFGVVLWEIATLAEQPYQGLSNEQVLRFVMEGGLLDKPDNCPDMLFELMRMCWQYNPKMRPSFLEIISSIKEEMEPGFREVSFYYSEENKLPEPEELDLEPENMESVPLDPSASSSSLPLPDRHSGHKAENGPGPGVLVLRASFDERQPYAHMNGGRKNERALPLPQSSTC

MINK1 (human) = MINK1 (human) (UniProt Q8N4C8)
PRKAA1 or PRKAA2 (rat) = settings: accession and sequence are those of the human protein

Chain of AURKB (human) (Q96GD4 whole entry, looked up): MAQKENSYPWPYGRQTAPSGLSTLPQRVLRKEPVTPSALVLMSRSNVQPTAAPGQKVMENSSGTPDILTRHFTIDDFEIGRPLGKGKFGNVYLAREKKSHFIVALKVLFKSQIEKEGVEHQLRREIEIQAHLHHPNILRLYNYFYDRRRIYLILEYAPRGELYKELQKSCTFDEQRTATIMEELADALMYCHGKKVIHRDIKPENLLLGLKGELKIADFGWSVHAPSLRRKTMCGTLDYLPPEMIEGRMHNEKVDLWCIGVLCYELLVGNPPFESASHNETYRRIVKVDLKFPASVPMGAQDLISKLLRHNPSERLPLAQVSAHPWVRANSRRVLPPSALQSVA
Chain of PLK1 (human) (P53350 whole entry, looked up): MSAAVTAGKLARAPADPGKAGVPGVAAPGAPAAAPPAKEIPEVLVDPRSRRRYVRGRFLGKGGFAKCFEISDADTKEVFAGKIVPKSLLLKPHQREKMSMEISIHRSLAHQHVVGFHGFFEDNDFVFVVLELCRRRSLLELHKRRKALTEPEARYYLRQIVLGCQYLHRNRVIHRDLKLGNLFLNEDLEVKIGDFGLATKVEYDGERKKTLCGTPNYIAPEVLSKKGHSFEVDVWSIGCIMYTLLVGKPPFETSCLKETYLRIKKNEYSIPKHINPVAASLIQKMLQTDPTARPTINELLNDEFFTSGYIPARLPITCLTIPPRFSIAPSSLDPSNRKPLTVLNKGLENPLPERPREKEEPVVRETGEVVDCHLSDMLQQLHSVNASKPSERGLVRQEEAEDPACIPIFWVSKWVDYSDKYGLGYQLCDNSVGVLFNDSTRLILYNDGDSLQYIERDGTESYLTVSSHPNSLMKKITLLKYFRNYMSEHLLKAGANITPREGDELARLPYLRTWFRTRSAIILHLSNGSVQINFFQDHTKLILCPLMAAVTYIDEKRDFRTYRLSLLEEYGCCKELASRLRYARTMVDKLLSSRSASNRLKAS
Chain of MAPK8 (human) (P45983 whole entry, looked up): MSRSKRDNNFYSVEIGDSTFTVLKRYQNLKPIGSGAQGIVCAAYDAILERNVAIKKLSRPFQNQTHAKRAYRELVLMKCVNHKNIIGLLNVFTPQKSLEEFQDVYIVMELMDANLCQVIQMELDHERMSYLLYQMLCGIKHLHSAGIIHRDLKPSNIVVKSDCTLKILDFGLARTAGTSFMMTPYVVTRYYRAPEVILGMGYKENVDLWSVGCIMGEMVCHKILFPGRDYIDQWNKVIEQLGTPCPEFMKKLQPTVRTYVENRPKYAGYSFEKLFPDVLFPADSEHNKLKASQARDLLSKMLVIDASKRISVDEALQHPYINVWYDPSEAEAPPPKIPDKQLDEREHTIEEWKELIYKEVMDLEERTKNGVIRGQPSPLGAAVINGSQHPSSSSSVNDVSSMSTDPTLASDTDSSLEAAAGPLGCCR
Chain of STK16 (human) (O75716 whole entry, looked up): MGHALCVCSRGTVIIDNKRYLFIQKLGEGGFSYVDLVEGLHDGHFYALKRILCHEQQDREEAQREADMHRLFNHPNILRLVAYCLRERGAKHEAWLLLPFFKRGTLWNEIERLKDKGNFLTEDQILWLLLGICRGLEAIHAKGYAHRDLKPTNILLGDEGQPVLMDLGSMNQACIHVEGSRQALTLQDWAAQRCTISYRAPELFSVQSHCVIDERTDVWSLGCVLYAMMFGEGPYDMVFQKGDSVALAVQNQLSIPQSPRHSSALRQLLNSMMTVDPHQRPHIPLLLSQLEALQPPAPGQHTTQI

`CCN1CCN(Cc2ccc(NC(=O)c3ccc(C)c(Oc4ccnc5[nH]ccc45)c3)cc2C(F)(F)F)CC1` was tested, and the residual activity (STK16 (human); compound 0.1 µM) was 103%, the residual activity (STK16 (human); compound 1.0 µM) was 90.7% and the residual activity (STK16 (human); compound 10.0 µM) was 99.2%. It also gave a residual activity (PLK1 (human); compound 0.1 µM) of 103%, a residual activity (PLK1 (human); compound 1.0 µM) of 91.6% and a residual activity (PLK1 (human); compound 10.0 µM) of 95%. For the same molecule, the residual activity (CSNK2A1 (human); compound 0.1 µM) was 90.2%, the residual activity (CSNK2A1 (human); compound 1.0 µM) was 94.1% and the residual activity (CSNK2A1 (human); compound 10.0 µM) was 98.5%. It also gave a residual activity (ABL1 (human); compound 0.1 µM) of 51.4%, a residual activity (ABL1 (human); compound 1.0 µM) of 3.77% and a residual activity (ABL1 (human); compound 10.0 µM) of 0.874%. It also gave a residual activity ([1]; compound 0.1 µM) of 54%, a residual activity ([1]; compound 10.0 µM) of 1.79% and a residual activity (MAPK8 (human); compound 0.1 µM) of 93.8%. It also gave a residual activity (MAPK8 (human); compound 1.0 µM) of 61.6%, a residual activity (MAPK8 (human); compound 10.0 µM) of 14.4% and a residual activity (AURKB (human); compound 0.1 µM) of 116%. The residual activity (AURKB (human); compound 1.0 µM) was 108%, the residual activity (AURKB (human); compound 10.0 µM) was 118% and the residual activity (YES1 (human); compound 0.1 µM) was 52.9%. The residual activity (YES1 (human); compound 1.0 µM) was 9.77%, the residual activity (YES1 (human); compound 10.0 µM) was 10.6% and the residual activity (TTK (human); compound 0.1 µM) was 91.2%. The residual activity (TTK (human); compound 1.0 µM) was 98.1%, the residual activity (TTK (human); compound 10.0 µM) was 66.1% and the residual activity (EPHB1 (human); compound 0.1 µM) was 111%. It also gave a residual activity (EPHB1 (human); compound 1.0 µM) of 106%, a residual activity (EPHB1 (human); compound 10.0 µM) of 66.9% and a residual activity (BRSK2 (human); compound 0.1 µM) of 100%. It also gave a residual activity (BRSK2 (human); compound 1.0 µM) of 94.8%, a residual activity (BRSK2 (human); compound 10.0 µM) of 88.8% and a residual activity (MAP3K1 (human); compound 0.1 µM) of 127%. For the same molecule, the residual activity (MAP3K1 (human); compound 1.0 µM) was 111%, the residual activity (MAP3K1 (human); compound 10.0 µM) was 108% and the residual activity (MAPK12 (human); compound 1.0 µM) was 37.8%. It also gave a residual activity (MAPK12 (human); compound 10.0 µM) of 10.8%, a residual activity (PAK4 (human); compound 0.1 µM) of 109% and a residual activity (PAK4 (human); compound 1.0 µM) of 99.4%. It also gave a residual activity (PAK4 (human); compound 10.0 µM) of 77.8%, a residual activity (AURKA (human); compound 0.1 µM) of 120% and a residual activity (AURKA (human); compound 1.0 µM) of 121%. For the same molecule, the residual activity (AURKA (human); compound 10.0 µM) was 102%, the residual activity (BRSK1 (human); compound 0.1 µM) was 101% and the residual activity (BRSK1 (human); compound 1.0 µM) was 96.2%. It also gave a residual activity (BRSK1 (human); compound 10.0 µM) of 109%, a residual activity (EIF2AK3 (human); compound 0.1 µM) of 98.8% and a residual activity (EIF2AK3 (human); compound 1.0 µM) of 64.6%. It also gave a residual activity (EIF2AK3 (human); compound 10.0 µM) of 21.4%, a residual activity (IGF1R (human); compound 0.1 µM) of 107% and a residual activity (IGF1R (human); compound 1.0 µM) of 84.8%. The residual activity (IGF1R (human); compound 10.0 µM) was 6.46%, the residual activity (MINK1 (human); compound 0.1 µM) was 75.7% and the residual activity (MINK1 (human); compound 1.0 µM) was 11.4%. For the same molecule, the residual activity (MINK1 (human); compound 10.0 µM) was 4.56%, the residual activity (PRKAA1 or PRKAA2 (rat); compound 0.1 µM) was 106% and the residual activity (PRKAA1 or PRKAA2 (rat); compound 1.0 µM) was 91.7%. The residual activity (PRKAA1 or PRKAA2 (rat); compound 10.0 µM) was 85.2%.
